# Data from patent publication US7378387B2, “Method of suppressing immune response by reducing intracellular content of glutathione in macrophages and monocytes” (Ajinomoto Co., Inc., priority 1997, dated 2008).
# Assays:
# [1] = test system: peritoneal exudate cells (macrophages); test: Induction of oxidative or reductive macrophages by administration, monochlorobimane/ACAS (Example 9); format: in vivo, DBA/2 mice; settings: for type of macrophages induced (monochlorobimane, ACAS): Day 1 and Day 2, cells harvested 20 hours later, 20 μg (NAC-OMe)2 or (NAC)2, 10 μg acetylgliotoxin, 2 mg NAC intraperitoneally, 40 μg dexamethasone subcutaneously
# Method: (§1) This was clarified by harvesting peritoneal exudate cells 20 hours after the completion of the administration, adhering the cells to the plastic surface, then reacting the cells with 10 μM of monochlorobimane at 37° C. for 30 minutes, and analyzing the reaction product with ACAS. The increase in the amounts of oxidative macrophages can easily be determined visually from the fact that almost no reaction product with monochlorobimane is observed, namely, a gray or blue image is provided, and the increase in the amounts of reductive macrophages from the fact that a red or yellow image is provided respectively. […] Meanwhile, the same examination was conducted by harvesting peritoneal exudate cells after 20 hours of the administration of 2 mg of N-acetylcystine (NAC).
# NO = NO production from macrophages induced through administration (Example 9, Table 1); format: in vivo, DBA/2 mice; settings: LPS 100 ng/ml, IFNγ 100 units/ml
# Method: A stimulator was added to 1×10^5 MΦ, and the incubation was conducted at 37° C. for 2 days in a CO2 incubator. After the completion of the centrifugation, the culture supernatant was collected.
# One hundred microliters of a Griess-Romijn reagent (supplied by Waco Pure Chemical Industries, Ltd.) adjusted to a concentration of 50 mg/ml in distilled water were added to 100 μl of the culture supernatant, and the reaction was conducted at room temperature for 15 minutes. After the completion of reaction, an absorbance of 540 nm was measured. NaNO2 was used as a standard.
# as §1
# (§2) Thus, the peritoneal exudate adherent cells were incubated in the following manner, and the amounts of NO and IL-12 produced in the culture supernatant were measured. With respect to the amount of IL-6, the amount of IL-6 produced spontaneously in the absence of a stimulator was measured.
# (§3) Cells: The peritoneal exudate adherent cells obtained by the stimulation, namely, the macrophages were added to a 96-well microplate in an amount of 1×10^5 cells/200 μl each.
# (§4) Medium: Phenol red-free RPMI 1640: 200 μl/well
# LPS: Lipopolysaccharide (made by Sigma Co.) (origin: E. coli) 100 ng/ml
# IL-6 = IL-6 production from macrophages induced through administration (Example 9, Table 1); format: in vivo, DBA/2 mice; set-up: concentration or dose not given beside the values; settings: produced spontaneously in the absence of a stimulator
# Method: A stimulator was added to 1×10^6 MΦ, and the incubation was conducted at 37° C. for 2 days in a CO2 incubator. After centrifugation, the culture supernatant was collected.
# The amount of IL-6 was determined using IL-6 dependent mouse hybridoma MH60 cells (J. Eur. Immunol., vol. 18, p. 951, 1988). One hundred microliters of the culture supernatant were added to 100 μl of the MH60 cell suspension adjusted to 1×10^5 cells/ml in a 10% FCS-containing RPMI medium, and the mixed solution was incubated at 37° C. for 2 days in a CO2 incubator. Subsequently, 10 μl of MTT (supplied by Sigma Co.) solution adjusted to a concentration of 5 mg/ml in the same medium were added thereto, and the reaction was conducted at 37° C. for 5 hours. After the completion of the reaction, the centrifugation was conducted. The supernatant (160 μl) was removed, and 100 μl of a mixture of hydrochloric acid and propanol were added to the residue. The suspension was conducted using a pipetman to dissolve the cells. Immediately after the dissolution, an absorbance of 570 nm was measured with an immunometer (supplied by Bio-Rad).
# as §1, §2, §3, §4
# [2] = test system: adjuvant-induced arthritis; test: Adjuvant-induced arthritis (AA) in rats, joint swelling (Examples 18 and 19); format: in vivo, Lewis rats
# Method: Adjuvant-induced arthritis was triggered in Lewis rats in a conventional manner; and the effects of chemical agents were examined in the animals. Adjuvant-induced arthritis is well known as an experimental arthritis inducible in rats [Taurog et al., Meth. Enzymol. 162, 339-355 (1988)]. […] An adjuvant is administered at 1 mg/0.1 ml per rate at a site of caudal root. The edema reaches its peak about 2 to 3 weeks after the administration of the adjuvant. The edema is triggered by inflammatory infiltration of monocytes. Swollen joints are measured with a micrometer every day; comparing the diameters of the joints prior to and after adjuvant administration and after initiation of the treatment with chemical agents with the diameters of the joints in the control group, the effects of the chemical agents were expressed as the ratio in % of joint swelling in the experimental groups to joint swelling in the control group. The effects were determined on day 15 after adjuvant administration. The chemical agents were given, starting the day next to the day of adjuvant administration, and every 3 days thereafter.
# A single dose is 1 mg/kg for (NAC)2 and (NAC-OMe)2; 100 mg/kg for NAC; and 0.1 mg/kg for lentinan.
# Adjuvant-induced arthritis was induced in Lewis rats in a conventional manner. In the same manner as in Example 11, the effects of chemical agents were examined in these rats. The conditions were the same as described above.
# [3] = test system: spontaneous onset of insulin-dependent diabetes mellitus; test: Onset of diabetes mellitus in NOD mice dosed at age 3 to 6 and 9 to 11 weeks (Example 24); format: in vivo; settings: doses as in the table line, 15 times in total, judged on week 22, saline 60
# From the text: NOD mice purchased from Nippon Clair, Co. were naturally mated together. Among the off spring mice, a colony of NOD mice with a high frequency of the spontaneous onset of insulin-dependent diabetes mellitus was established. Female NOD mice from the colony were used for the present experiment. […] Urine glucose was detected, using Uropaper (BM Test Glucose 5000, manufactured by Yamanouchi Pharmaceuticals, Co. Ltd.). The onset was judged on week 22.
# [4] = test system: spontaneous onset of insulin-dependent diabetes mellitus; test: Onset of diabetes mellitus in NOD mice dosed at age 9 to 11 weeks (Example 25); format: in vivo; settings: nine times
# From the text: NOD mice purchased from Nippon Clair, Co. were naturally mated together. Among the off spring mice, a colony of NOD mice with a high frequency of the spontaneous onset of insulin-dependent diabetes mellitus was established. Female NOD mice from the colony were used for the present experiment. Chemical agents were orally or intraperitoneally administered to the NOD mice aged 9 to 11 weeks three times per week, in total nine times; and based on the test results of urine glucose, positive or negative, the onset of diabetes mellitus was followed once per week. Urine glucose was detected, using Uropaper (BM Test Glucose 5000, manufactured by Yamanouchi Pharmaceuticals, Co. Ltd.). The onset was judged on week 22; the doses were the same as in Example 24.
# [5] = Table 3, day 15 after adjuvant, every 3 days, single dose 1 mg/kg (NAC)2 and (NAC-OMe)2, 100 mg/kg NAC, 0.1 mg/kg lentinan
Compound,"type of macrophages induced (monochlorobimane, ACAS) [1]","induction of oxidative macrophages on ACAS ([1]; intraperitoneally 20 μg/0.5 ml/h each, twice a week for three weeks, 9-11 weeks of age)","NO, amount produced relative to that of control group (NO) [%]","IL-6, amount produced relative to that of control group (IL-6) [%]","Ratio in % of joint swelling in experimental groups to joint swelling in control group [2, 5] [%]","Ratio in % of joint swelling in experimental groups to joint swelling in control group ([2]; Table 4, intravenous) [%]",Frequency (%) of onset of diabetes mellitus ([3]; intraperitoneal) [%],"Frequency (%) of onset of diabetes mellitus ([4]; intraperitoneal, judged on week 22, doses as in Example 24, saline 67) [%]","Frequency (%) of onset of diabetes mellitus ([4]; route not given, judged on week 22, saline 67) [%]","Ratio in % of joint swelling in experimental groups to joint swelling in control group ([2]; Table 4, oral) [%]",Frequency (%) of onset of diabetes mellitus ([3]; oral) [%],"Frequency (%) of onset of diabetes mellitus ([4]; oral, judged on week 22, doses as in Example 24, saline 67) [%]"
"COC(=O)[C@H](CSSC[C@H](NC(C)=O)C(=O)OC)NC(C)=O [(NAC-OMe)2, N,N′-diacetylcystine dimethyl ester]",Oxidative macrophages were induced,induction of oxidative macrophages was confirmed,12,320,50,42,70,11,–,–,–,–
"CC(=O)N[C@@H](CSSC[C@H](NC(C)=O)C(=O)O)C(=O)O [(NAC)2, N,N′-diacetylcystine]",Oxidative macrophages were induced,–,18,340,96,95,–,–,60,–,–,–
"CC(=O)N[C@@H](CS)C(=O)O [NAC, N-acetylcysteine, reference compound]",reductive macrophages were induced,–,172,42,132,–,–,–,–,142,40,60
"CCOC(=O)CNC(=O)[C@H](CS)NC(=O)CC[C@H](N)C(=O)O [GSH-OEt, glutathione monoethyl ester]",–,–,–,–,–,–,0,–,–,–,–,–
